The values below come from PubChem BioAssay (NCI).

Some test systems named below: NCI-H23 lung; SW-620 colon; SK-OV-3 ovarian; NCI-H226 lung; UO-31 renal; SF-539 CNS; A549 NSCLC; K-562 leukemia; UACC-62 melanoma; EKVX NSCLC.
Holding throughout (experiment): NCI anticancer screen, dose series, 48 h

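A five-concentration, 48-hour dose response in 96-well plates underlies each endpoint, interpolated linearly between surrounding concentrations. GI50 = concentration required for 50% inhibition of growth. TGI is the concentration that stops growth completely.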 Bounds are passed on as bounds.

Consider `COC(=O)[C@H](Cc1cn(C)cn1)NC(=O)[C@@H](NC(=O)Nc1cc(C(F)(F)F)cc(C(F)(F)F)c1)C(C)(C)C`, for which the GI50 in the test on NCI-H23 lung, in the test on SW-620 colon, in the test on SK-OV-3 ovarian, in the test with NCI-H226 lung, in the test with UO-31 renal and in the test with SF-539 CNS was over 10 µM each time. Further, the GI50 in the test on A549 NSCLC, with K-562 leukemia and in the test with UACC-62 melanoma was over 10 µM throughout. In addition, the TGI in the test on NCI-H23 lung, in the test on SW-620 colon, with SK-OV-3 ovarian, with NCI-H226 lung, in the test with UO-31 renal and with SF-539 CNS was over 10 µM throughout. In addition, the TGI with A549 NSCLC, in the test on K-562 leukemia and in the test on UACC-62 melanoma was over 10 µM throughout.

Take `Cc1nc2ccccc2c(/C=C/c2ccccc2)c1C(=O)/C=C/c1ccccc1`: the GI50 in the test on SK-OV-3 ovarian was 3.92 µM; with EKVX NSCLC, 1.75 µM; with NCI-H226 lung it was 2.16 µM; in the test on UO-31 renal, 1.33 µM; in the test with SF-539 CNS, 1.76 µM; with A549 NSCLC, 2.29 µM. Besides, the GI50 in the test on K-562 leukemia is 2.84 µM; with UACC-62 melanoma, 1.77 µM. The TGI with SK-OV-3 ovarian is over 100 µM; in the test with EKVX NSCLC, 3.28 µM; in the test with NCI-H226 lung, 5.27 µM; with UO-31 renal, 2.61 µM; with SF-539 CNS, 3.19 µM; with A549 NSCLC, 6.06 µM. Further, the TGI was over 100 µM in the test on K-562 leukemia and 3.23 µM in the test on UACC-62 melanoma.

Consider `CCCC(=O)Nc1c(I)cc(I)c(CC(CC)C(=O)O)c1I` (centres undefined), for which the GI50 with NCI-H23 lung, in the test on SW-620 colon, in the test with SK-OV-3 ovarian, in the test on EKVX NSCLC, in the test on NCI-H226 lung and in the test with UO-31 renal was over 100 µM throughout. The GI50 in the test on SF-539 CNS, in the test on A549 NSCLC, in the test with K-562 leukemia and in the test on UACC-62 melanoma was over 100 µM throughout. In addition, the TGI in the test with NCI-H23 lung, in the test on SW-620 colon, with SK-OV-3 ovarian, in the test with EKVX NSCLC, in the test with NCI-H226 lung and in the test on UO-31 renal was over 100 µM throughout. Also, the TGI with SF-539 CNS, in the test with A549 NSCLC, in the test on K-562 leukemia and in the test on UACC-62 melanoma was over 100 µM throughout.

Take `Fc1ccc2c(c1)cc1ccc3cccc4ccc2c1c34`: the TGI in the test on NCI-H23 lung, in the test on SW-620 colon, in the test with SK-OV-3 ovarian, with EKVX NSCLC, in the test with NCI-H226 lung and in the test with UO-31 renal was over 100 µM in each case. For the same compound, the TGI in the test with SF-539 CNS, in the test on A549 NSCLC, in the test on K-562 leukemia and in the test with UACC-62 melanoma was over 100 µM throughout.

As to `COc1ccc2c(c1OC)C(C=C(c1ccccc1)c1ccccc1)CN(C)C2` (centres undefined), the TGI in the test on NCI-H23 lung is 63.1 µM; in the test with SW-620 colon, 26.2 µM; with SK-OV-3 ovarian it was over 100 µM; with EKVX NSCLC, over 100 µM; with NCI-H226 lung, 98.6 µM; with UO-31 renal, over 100 µM. Also, the TGI in the test on SF-539 CNS worked out at 56.6 µM; in the test on A549 NSCLC it was 88.2 µM; in the test on K-562 leukemia, 25.1 µM; with UACC-62 melanoma, 40.2 µM.

Turning to `CCCCCCC/C=C1\CCC(CN(C)C)C1=O` (centres undefined), the TGI in the test on NCI-H23 lung came to 32.7 µM; in the test with SW-620 colon it was 18 µM; in the test on SK-OV-3 ovarian it was 43 µM; with EKVX NSCLC, 22.8 µM; in the test on NCI-H226 lung, 48.4 µM; with UO-31 renal, 29.1 µM. The TGI with SF-539 CNS is 32.7 µM; in the test with A549 NSCLC, 50 µM; with K-562 leukemia, 9.53 µM; in the test with UACC-62 melanoma, 28.7 µM.

As for `CCCCCCCCCCCCC(NC(C)=O)(C(=O)OCC)C(=O)OCC`, the GI50 with NCI-H23 lung is 10.8 µM; with SW-620 colon, 13 µM; with SK-OV-3 ovarian, 12.6 µM; with EKVX NSCLC it was 6.99 µM; with NCI-H226 lung, 12.5 µM; in the test on UO-31 renal, 7.39 µM. Further, the GI50 with SF-539 CNS was 16 µM; with A549 NSCLC, 14.3 µM; with K-562 leukemia it was 7.55 µM; with UACC-62 melanoma, 4.88 µM. In addition, the TGI in the test with NCI-H23 lung is 24.8 µM; in the test with SW-620 colon, 26.9 µM; in the test on SK-OV-3 ovarian, 25.7 µM; with EKVX NSCLC it was 26.1 µM; in the test on NCI-H226 lung it was 27.2 µM; with UO-31 renal, 27.5 µM. Further, the TGI in the test with SF-539 CNS is 33.1 µM; with A549 NSCLC, 32.5 µM; with K-562 leukemia, over 100 µM; in the test with UACC-62 melanoma, 19.6 µM.

With `Cc1ccccc1C[P+](c1ccccc1)(c1ccccc1)c1ccccc1`, the GI50 in the test with NCI-H23 lung is 1.97 µM; in the test on SW-620 colon, 2.33 µM; with SK-OV-3 ovarian, 1.64 µM; with EKVX NSCLC, 0.873 µM; in the test on NCI-H226 lung, 3.18 µM; in the test with UO-31 renal, 40.5 µM. Also, the GI50 with SF-539 CNS was 2.34 µM; in the test with A549 NSCLC it was 3.72 µM; in the test on K-562 leukemia, 0.786 µM; in the test with UACC-62 melanoma, 0.757 µM. The TGI in the test on NCI-H23 lung is over 100 µM; in the test with SW-620 colon, over 100 µM; in the test with SK-OV-3 ovarian it was 9.27 µM; in the test with EKVX NSCLC, over 100 µM; in the test with NCI-H226 lung, over 100 µM; in the test with UO-31 renal, over 100 µM. Further, the TGI was over 100 µM with SF-539 CNS, over 100 µM in the test on A549 NSCLC, over 100 µM in the test on K-562 leukemia and 31.6 µM in the test on UACC-62 melanoma.

Consider `N#Cc1ccc(NC(=O)Nc2nc3ccc(OC(F)(F)F)cc3s2)cc1`, for which the GI50 was 0.581 µM in the test on NCI-H23 lung; 1.61 µM with SW-620 colon; 2.65 µM in the test on SK-OV-3 ovarian; 1.36 µM in the test on EKVX NSCLC; 1.98 µM with NCI-H226 lung; 1.67 µM in the test on UO-31 renal. Further, the GI50 was 2.9 µM in the test with SF-539 CNS, 1.21 µM in the test with A549 NSCLC, 0.534 µM in the test with K-562 leukemia and 0.737 µM with UACC-62 melanoma. Besides, the TGI with NCI-H23 lung is 6.02 µM; in the test with SW-620 colon, 12 µM; in the test with SK-OV-3 ovarian, 11.1 µM; in the test with EKVX NSCLC it was 14.7 µM; in the test on NCI-H226 lung it was 10.4 µM; with UO-31 renal, 7.92 µM. The TGI in the test on SF-539 CNS worked out at 10.1 µM; with A549 NSCLC, 11.1 µM; with K-562 leukemia, 26.1 µM; in the test on UACC-62 melanoma it was 3.87 µM.
